Source: US6147100A, “Pyrrolidine derivatives having phospholipase A2 inhibitory activity” (Shionogi & Co., Ltd., priority 1997, dated 2000)
pIC50: −log10 of the molar value.

These compounds were tested against T1, cPLA2 (Homo sapiens, UniProt P47712) (assay: cPLA2 Inhibitory Activity). Conditions: 1-palmitoyl-2-[14C]-arachidonoyl-sn-glycero-3-phosphocholine 2.5 μM, sn-1,2-dioleoylglycerol 1.25 μM; pH 7.5, 15 min at 37° C.
T1 sequence (P47712 1-749): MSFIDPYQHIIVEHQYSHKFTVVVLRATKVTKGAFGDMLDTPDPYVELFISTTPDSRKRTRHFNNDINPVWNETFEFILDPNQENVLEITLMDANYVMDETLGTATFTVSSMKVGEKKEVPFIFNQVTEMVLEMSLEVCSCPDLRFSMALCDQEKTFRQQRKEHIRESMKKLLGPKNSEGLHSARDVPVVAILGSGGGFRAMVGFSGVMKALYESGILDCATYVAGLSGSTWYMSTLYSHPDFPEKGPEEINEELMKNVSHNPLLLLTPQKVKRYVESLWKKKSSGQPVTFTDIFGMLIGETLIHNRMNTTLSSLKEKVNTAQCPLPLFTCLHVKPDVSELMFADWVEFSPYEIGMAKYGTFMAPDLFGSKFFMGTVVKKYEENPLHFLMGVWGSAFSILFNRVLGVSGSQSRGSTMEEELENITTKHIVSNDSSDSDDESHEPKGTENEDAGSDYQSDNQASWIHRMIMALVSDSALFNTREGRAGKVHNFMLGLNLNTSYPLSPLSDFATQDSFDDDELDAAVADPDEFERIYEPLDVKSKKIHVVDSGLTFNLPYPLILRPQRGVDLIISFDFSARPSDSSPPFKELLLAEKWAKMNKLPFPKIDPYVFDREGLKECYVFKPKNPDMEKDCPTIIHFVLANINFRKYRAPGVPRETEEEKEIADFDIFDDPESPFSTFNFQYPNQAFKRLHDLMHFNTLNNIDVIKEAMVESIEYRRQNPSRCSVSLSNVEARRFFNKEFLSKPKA
Format: biochemical
Experimental: Test Example 1 cPLA2 Inhibitory Activity The compounds of the present invention were tested for the cPLA2 inhibitory activity according to the method disclosed in […]. Roberts, […], and J. E. Putnam, J. Biol. Chem., 1991, 266, 5268-5272 as outlined below. […] The reaction mixture includes 50 mM HEPES buffer (pH 7.5), 1 mM calcium chloride, 150 mM sodium chloride, 0.1 mg/ml bovine serum albumin, and 1.7 mM dithiothreitol. To the reaction mixture was added the compound of the present invention and the substrate solution. The reaction was allowed to start by adding an enzyme and continued for 15 min at 37° C. The fatty acids released by the reaction were extracted by the method described in V. P. Dole, and H. Meinertz, J. Biol. Chem., 1960, 235, 2595-2599 and its radiation activity was measured on a liquid scintillation counter. Control was obtained by conducting the experiment in the same manner except that a compound of the present invention was not added.

pIC50	Structure (SMILES)
5.25	CN(C(=O)C[C@@H]1C[C@@H](OCc2ccccc2-c2ccccc2)CN1C(=O)c1ccccc1C(=O)c1ccc(F)cc1)c1ccc(/C=C2\SC(=O)NC2=O)cc1 [Compound G-13]
6.82	CC(C)CN(CC(C)C)[C@@H]1C[C@@H](CNC(=O)c2ccc(/C=C3\SC(=O)NC3=O)cc2)N(C(=O)c2ccccc2C(=O)c2ccc(F)cc2)C1 [Compound M-15]
5.27	CN(Cc1ccc(/C=C2\SC(=S)NC2=O)cc1)C[C@@H]1C[C@@H](OCc2ccccc2-c2ccccc2)CN1C(=O)c1ccccc1C(=O)c1ccc(F)cc1 [Compound G-2]
5.82	CN(Cc1ccccc1)[C@@H]1C[C@@H](CNC(=O)c2ccc(/C=C3\SC(=O)NC3=O)cc2)N(C(=O)c2ccccc2C(=O)c2ccc(F)cc2)C1 [Compound M-1]
5.00	O=C1NC(=S)SC1=C[C@@H]1C[C@@H](OCc2ccccc2-c2ccccc2)CN1C(=O)c1ccccc1C(=O)c1ccc(F)cc1 [Compound H-1]
5.33	O=C1NC(=O)/C(=C/c2ccc(C(=O)NCC[C@@H]3C[C@@H](OCc4ccccc4-c4ccccc4)CN3C(=O)c3ccccc3C(=O)c3ccc(F)cc3)cc2)S1 [Compound F-2]
5.55	CC(=O)N(Cc1ccc(/C=C2\SC(=O)NC2=O)cc1)C[C@@H]1C[C@@H](OCc2ccccc2-c2ccccc2)CN1C(=O)c1ccccc1C(=O)c1ccc(F)cc1 [Compound G-7]
8.51	CC(C)CN(Cc1ccccc1-c1ccccc1)[C@@H]1C[C@@H](CNC(=O)/C=C/c2ccc(/C=C3\SC(=O)NC3=O)cc2)N(C(=O)c2ccccc2C(=O)c2ccc(F)cc2)C1 [Compound M-19]
5.40	CN(C(=O)[C@@H]1C[C@@H](OCc2ccccc2-c2ccccc2)CN1C(=O)c1ccccc1C(=O)c1ccc(F)cc1)c1ccc(/C=C2\SC(=S)NC2=O)cc1 [Compound G-11]
5.48	CN(Cc1ccc(/C=C2\SC(=O)NC2=O)cc1)C[C@@H]1C[C@@H](OCc2ccccc2-c2ccccc2)CN1C(=O)c1ccccc1C(=O)c1ccc(F)cc1 [Compound G-3]
8.19	CC(C)CN(C(c1ccccc1)c1ccccc1)[C@@H]1C[C@@H](CNC(=O)/C=C/c2ccc(/C=C3\SC(=O)NC3=O)cc2)N(C(=O)c2ccccc2C(=O)c2ccc(F)cc2)C1 [Compound M-20]
7.16	CCN(Cc1ccccc1-c1ccccc1)[C@@H]1C[C@@H](C(=O)Nc2ccc(/C=C3\SC(=O)NC3=O)cc2)N(C(=O)c2ccccc2C(=O)c2ccc(F)cc2)C1 [Compound N-4]
6.62	CCN(Cc1ccccc1-c1ccccc1)[C@@H]1C[C@@H](C(=O)Nc2ccc(/C=C3\SC(=S)NC3=O)cc2)N(C(=O)c2ccccc2C(=O)c2ccc(F)cc2)C1 [Compound N-5]
5.55	CN(C(=O)[C@@H]1C[C@@H](OCc2ccccc2-c2ccccc2)CN1C(=O)c1ccccc1C(=O)c1ccc(F)cc1F)c1ccc(/C=C2\SC(=S)NC2=O)cc1 [Compound G-12]
6.85	CC(C)N(Cc1ccccc1)[C@@H]1C[C@@H](CNC(=O)c2ccc(/C=C3\SC(=S)NC3=O)cc2)N(C(=O)c2ccccc2C(=O)c2ccc(F)cc2)C1 [Compound M-4]
4.89	O=C1NC(=S)S/C1=C\C1CCN(C(=O)[C@@H]2C[C@@H](SCc3ccccc3-c3ccccc3)CN2C(=O)c2ccccc2C(=O)c2ccc(F)cc2)CC1 [Compound J-6]
5.96	O=C1NC(=S)S/C1=C\c1ccc(CN(C[C@@H]2C[C@@H](OCc3ccccc3-c3ccccc3)CN2C(=O)c2ccccc2C(=O)c2ccc(F)cc2)C(=O)c2ccccc2)cc1 [Compound G-8]
5.62	CN(C(=O)[C@@H]1C[C@@H](OCc2ccccc2-c2ccccc2)CN1C(=O)c1ccccc1C(=O)c1ccc(F)cc1)c1ccc(/C=C2\SC(=O)NC2=O)cc1 [Compound G-10]
7.89	CC(C)CN(C(c1ccccc1)c1ccccc1)[C@@H]1C[C@@H](CNC(=O)c2ccc(/C=C3\SC(=O)NC3=O)cc2)N(C(=O)c2ccccc2C(=O)c2ccc(F)cc2)C1 [Compound M-13]

Second part, the compound before the results:

Structure (SMILES)	pIC50
CC(C)Cc1cccc(-c2ccccc2)c1O[C@@H]1C[C@@H](CNC(=O)c2ccc(/C=C3\SC(=O)NC3=O)cc2)N(C(=O)c2ccccc2C(=O)c2ccc(F)cc2)C1 [Compound A-124]	7.62
O=C1NC(=O)/C(=C/c2ccc(C(=O)NC[C@@H]3C[C@@H](OCc4ccccc4-c4ccccc4)CN3C(=O)c3ccccc3C(=O)c3ccc(F)cc3)o2)S1 [Compound A-64]	5.66
O=C1NC(=O)/C(=C/c2ccc(C(=O)NC[C@@H]3C[C@@H](OCc4cccc(-c5ccc6ccccc6c5)c4)CN3C(=O)c3ccccc3C(=O)c3ccc(F)cc3)cc2)S1 [Compound A-42]	6.85
O=C1NC(=O)/C(=C/c2ccc(/C=C/[C@@H]3C[C@@H](OCc4ccccc4-c4ccccc4)CN3C(=O)c3ccccc3C(=O)c3ccc(F)cc3)s2)S1 [Compound E-8]	5.85
Cc1c(CO[C@@H]2C[C@@H](CNC(=O)c3ccc(/C=C4\SC(=O)NC4=O)cc3)N(C(=O)c3ccccc3C(=O)c3ccc(F)cc3)C2)cccc1-c1ccccc1 [Compound A-31]	6.70
CC(C)c1cccc(-c2cccc3ccccc23)c1O[C@@H]1C[C@@H](CNC(=O)c2ccc(/C=C3\SC(=O)NC3=O)cc2)N(C(=O)c2ccccc2C(=O)c2ccc(F)cc2)C1 [Compound A-114]	7.70
O=C1NC(=O)/C(=C/c2cccc(C(=O)NC[C@@H]3C[C@@H](OCc4ccccc4-c4ccccc4)CN3C(=O)c3ccccc3C(=O)c3ccc(F)cc3)c2)S1 [Compound A-56]	5.60
O=C1NC(=O)/C(=C/c2ccc(/C=C\[C@@H]3C[C@@H](OCc4ccccc4-c4ccccc4)CN3C(=O)c3ccccc3C(=O)c3ccc(F)cc3)s2)S1 [Compound E-6]	5.82
CC(=O)Nc1ccccc1C(=O)c1ccccc1C(=O)N1C[C@H](OCc2ccccc2-c2ccccc2)C[C@H]1CNC(=O)c1ccc(/C=C2\SC(=O)NC2=O)cc1 [Compound A-24]	5.24
O=C1NC(=O)/C(=C/c2ccc(C(=O)NC[C@@H]3C[C@@H](Oc4ccc5c6c4CCCN6CCC5)CN3C(=O)c3ccccc3C(=O)c3ccc(F)cc3)cc2)S1 [Compound A-92]	7.24
O=C1NC(=O)/C(=C/c2ccc(C(=O)NC[C@@H]3C[C@@H](OCc4ccccc4-c4ccccc4)CN3C(=O)CCC(=O)c3ccccc3)cc2)S1 [Compound A-7]	5.30
Nc1cccc(-c2ccccc2CO[C@@H]2C[C@@H](CNC(=O)c3ccc(/C=C4\SC(=O)NC4=O)cc3)N(C(=O)c3ccccc3C(=O)c3ccc(F)cc3)C2)c1 [Compound A-46]	6.82
O=C1NC(=O)C(CCCc2ccc(C(=O)NC[C@@H]3C[C@@H](OCc4ccccc4-c4ccccc4)CN3C(=O)c3ccccc3C(=O)c3ccc(F)cc3)cc2)S1 (some centres unmarked) [Compound A-51]	6.74
O=C1NC(=S)S/C1=C\c1ccc(/C=C/[C@@H]2C[C@@H](OCc3ccccc3-c3ccccc3)CN2C(=O)c2ccccc2C(=O)c2ccc(F)cc2)s1 [Compound E-7]	5.80
O=C1NC(=O)C(=CC2CCN(C(=O)[C@@H]3C[C@@H](OCc4ccccc4-c4ccccc4)CN3C(=O)c3ccccc3C(=O)c3ccc(F)cc3)CC2)S1 [Compound B-9]	4.85
CC(C)Cc1cccc(-c2cccc3ccccc23)c1O[C@@H]1C[C@@H](CNC(=O)c2ccc(/C=C3\SC(=O)NC3=O)cc2)N(C(=O)c2ccccc2C(=O)c2ccc(F)cc2)C1 [Compound A-125]	8.18
CC(C)Cc1cccc(-c2ccccc2C(C)C)c1O[C@@H]1C[C@@H](CNC(=O)c2ccc(/C=C3\SC(=O)NC3=O)cc2)N(C(=O)c2ccccc2C(=O)c2ccc(F)cc2)C1 [Compound A-126]	8.26
O=C1NC(=S)S/C1=C\c1ccc(CCC[C@@H]2C[C@@H](OCc3ccccc3-c3ccccc3)CN2C(=O)c2ccccc2C(=O)c2ccc(F)cc2)cc1 [Compound E-10]	6.10
O=C1NC(=O)/C(=C/c2ccc(C(=O)NC[C@@H]3C[C@@H](OCc4ccccc4-c4ccccc4)CN3C(=O)/C=C\C(=O)c3ccccc3)cc2)S1 [Compound A-8]	4.62
O=C1NC(=S)S/C1=C\c1ccc(/C=C\C[C@@H]2C[C@@H](OCc3ccccc3-c3ccccc3)CN2C(=O)c2ccccc2C(=O)c2ccc(F)cc2)cc1 [Compound E-11]	6.49
O=C1NC(=O)/C(=C/c2ccc(C(=O)NC[C@@H]3C[C@@H](Oc4cccc(-c5cccc(O)c5)c4)CN3C(=O)c3ccccc3C(=O)c3ccc(F)cc3)cc2)S1 [Compound A-106]	6.70
CC(C)Oc1ccccc1-c1ccccc1O[C@@H]1C[C@@H](CNC(=O)c2ccc(/C=C3\SC(=O)NC3=O)cc2)N(C(=O)c2ccccc2C(=O)c2ccc(F)cc2)C1 [Compound A-121]	7.19
